Data taken from article PMC5963757, “Expression, purification, and inhibition profile of dihydrofolate reductase from the filarial nematode Wuchereria bancrofti” (PLoS ONE, 2018).
Where two headings read alike, the source gives them in different places.

Columns and labels:
WbDHFR [1] = target: T1, WbDHFR (Wuchereria bancrofti, UniProt J9F199)
Description: To determine the mechanism of inhibition, Dixon plots were created and analyzed for the inhibitors against WbDHFR. We determined WbDHFR activity as described above at DHF concentrations of 2 μM, 4 μM, and 8 μM in 200 μL reaction volumes. WbDHFR (6 nM) and 100 μM NADPH cofactor were included in 1 X MTEN buffer at pH 6.0. […] The reciprocal initial velocities were plotted against inhibitor concentration for each substrate in Excel to create the Dixon plots. Substrate trend-lines were extended to calculate the intersection point,–KI. Each Dixon plot was generated in triplicate.
A linear equation was fitted to the data at each substrate concentration. […] The KI values for BmDHFR in Table 1 were obtained using the Cheng-Prusoff Equation [18]. […] Inhibitor structures are shown in supporting information (S2 Fig).

WbDHFR [2] = target: T1, WbDHFR; assay type: biochemical
Description: Compounds (-)-epicatechin, (-)-epicatechin gallate, and vitexin were tested as inhibitors of WbDHFR and BmDHFR. The compounds (-)-epicatechin and (-)-epicatechin gallate were synthesized as described previously. […] Disappearance of DHF and NADPH was observed by measuring absorbance at 340 nm to measure the DHFR activity in a SpectraMax M3 microplate reader. […] All experiments were completed in triplicate.

[3] = read-out: Average KI, WbDHFR, average of three trials, Dixon plots
[4] = read-out: KI Trial 1, WbDHFR, individual trial, Dixon plot
[5] = read-out: KI Trial 2, WbDHFR, individual trial, Dixon plot
[6] = read-out: KI Trial 3, WbDHFR, individual trial, Dixon plot
[7] = read-out: KI WbDHFR, from Dixon plots, 6 nM WbDHFR, 100 μM NADPH, DHF 2, 4, 8 μM, pH 6.0, ± S.D.
[8] = read-out: IC50 WbDHFR, pH 6.0, 100 μM NADPH, 50 μM DHF, 12.1 nM WbDHFR, average of triplicates ± S.D.
[9] = read-out: IC50 against WbDHFR Average, average of three trials
[10] = read-out: IC50 against WbDHFR Trial 1, individual trial
[11] = read-out: IC50 against WbDHFR Trial 2, individual trial
[12] = read-out: IC50 against WbDHFR Trial 3, individual trial

Structure (SMILES): CCc1nc(N)nc(N)c1-c1ccc(Cl)cc1 [Pyrimethamine, pyrimethamine]
- Ki (WbDHFR [1]; [3]): 15 µM
- Ki (WbDHFR [1]; [4]): 20.3 µM
- Ki (WbDHFR [1]; [5]): 15.9 µM
- Ki (WbDHFR [1]; [6]): 8.89 µM
- Ki (WbDHFR [1]; [7]): 15 ± 6 µM
- IC50 (WbDHFR [2]; [8]): 454 ± 37 µM
- IC50 (WbDHFR [2]; [9]): 454 µM
- IC50 (WbDHFR [2]; [10]): 449 µM
- IC50 (WbDHFR [2]; [11]): 494 µM
- IC50 (WbDHFR [2]; [12]): 420 µM

Structure (SMILES): O=c1cc(-c2ccc(O)cc2)oc2c([C@@H]3O[C@H](CO)[C@@H](O)[C@H](O)[C@H]3O)c(O)cc(O)c12 [Vitexin, vitexin]
- IC50 (WbDHFR [2]; [8]): > 240 µM

Structure (SMILES): Oc1cc(O)c2c(c1)O[C@H](c1ccc(O)c(O)c1)[C@H](O)C2 [(-)-Epicatechin, (-)-epicatechin]
- IC50 (WbDHFR [2]; [8]): > 2500 µM

Structure (SMILES): Cc1nc2ccc(CN(C)c3ccc(C(=O)N[C@@H](CCC(=O)O)C(=O)O)s3)cc2c(=O)[nH]1 [Raltitrexed, raltitrexed]
- Ki (WbDHFR [1]; [3]): 1.6 µM
- Ki (WbDHFR [1]; [4]): 0.536 µM
- Ki (WbDHFR [1]; [5]): 1.09 µM
- Ki (WbDHFR [1]; [6]): 3.32 µM
- IC50 (WbDHFR [2]; [8]): 18 ± 10 µM
- IC50 (WbDHFR [2]; [9]): 17.8 µM
- IC50 (WbDHFR [2]; [10]): 28.6 µM
- IC50 (WbDHFR [2]; [11]): 11.7 µM
- IC50 (WbDHFR [2]; [12]): 13 µM

Structure (SMILES): Nc1nc(N)c2nc(CNc3ccc(C(=O)N[C@@H](CCC(=O)O)C(=O)O)cc3)cnc2n1 [Aminopterin, aminopterin]
- Ki (WbDHFR [1]; [4]): 0.0026 µM
- Ki (WbDHFR [1]; [5]): 0.00219 µM
- Ki (WbDHFR [1]; [6]): 0.0016 µM
- Ki (WbDHFR [1]; read-out: KI WbDHFR, as stated in text (abstract, discussion)): 0.0021 ± 0.0005 µM
- Ki (WbDHFR [1]; [7]): 0.0021 ± 0.0005 µM
- IC50 (WbDHFR [2]; [8]): 0.014 ± 0.005 µM
- IC50 (WbDHFR [2]; [9]): 0.0144 µM
- IC50 (WbDHFR [2]; [10]): 0.0203 µM
- IC50 (WbDHFR [2]; [11]): 0.00996 µM
- IC50 (WbDHFR [2]; [12]): 0.013 µM
